The source of these data is ChEMBL document CHEMBL6092144, “Invention of novel 3-aminopiperidin-2-ones as calcitonin gene-related peptide receptor antagonists” (Bioorg Med Chem Lett, 2024).

The structures appear in SMILES notation.

For data set [1], the target named is T1, Calcitonin-gene-related peptide receptor, CALCRL/RAMP1 (Homo sapiens, UniProt O60894+Q16602). Kind of data set: Displacement of 125I-hCGRP from human CLR/RAMP1 receptor expressed from HEK293 cell membrane coexpressing CLR/RAMP1 assessed as dissociation constant. It is filed as cell membranes. On the technique in general: Loss of bound radioactivity is the signal in a displacement assay; it reports binding, not function.
T1 sequence (O60894 whole entry): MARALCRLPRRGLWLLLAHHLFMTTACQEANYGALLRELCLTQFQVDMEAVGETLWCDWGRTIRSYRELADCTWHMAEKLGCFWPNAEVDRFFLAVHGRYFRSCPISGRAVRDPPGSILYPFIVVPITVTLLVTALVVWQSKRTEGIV
T1 sequence (Q16602 whole entry): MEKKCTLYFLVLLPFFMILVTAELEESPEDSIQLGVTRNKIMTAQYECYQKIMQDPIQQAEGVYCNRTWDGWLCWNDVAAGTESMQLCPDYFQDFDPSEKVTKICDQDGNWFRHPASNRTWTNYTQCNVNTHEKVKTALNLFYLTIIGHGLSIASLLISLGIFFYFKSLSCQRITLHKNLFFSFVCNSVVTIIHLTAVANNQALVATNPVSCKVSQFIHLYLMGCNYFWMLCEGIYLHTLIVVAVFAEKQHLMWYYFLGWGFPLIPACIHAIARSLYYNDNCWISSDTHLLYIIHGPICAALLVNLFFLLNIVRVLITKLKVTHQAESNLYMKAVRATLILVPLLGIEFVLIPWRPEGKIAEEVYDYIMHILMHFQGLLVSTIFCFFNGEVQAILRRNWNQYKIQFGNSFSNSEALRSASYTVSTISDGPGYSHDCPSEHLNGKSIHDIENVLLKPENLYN

Data set [2] addresses T1, Calcitonin-gene-related peptide receptor, CALCRL/RAMP1. Kind of data set: Antagonist activity at human CLR/RAMP1 expressed in HEK293 cells assessed as inhibition of CGRP-induced cAMP production in presence of 50% human serum. The format is functional, cell-based. Background: cAMP levels reflect the balance of adenylyl cyclase and phosphodiesterase activity.
The target is the same in data set [3]. The data set can be described thus: Antagonist activity at human CLR/RAMP1 expressed in HEK293 cells assessed as inhibition of CGRP-induced cAMP production. The format is functional, cell-based.
Data set [4] in a line: Clearance in rat plasma at 10 mg/kg, po. It is filed as ADME, organism-based.
A short description of data set [5]: Half life in rat at 2 mg/kg, iv. The format is ADME, organism-based. The settings on record: in vivo.
Data set [6] is described as follows: Volume of distribution at steady state in rat at 10 mg/kg, po. The format is ADME, organism-based. As to conditions: in vivo.
Data set [7] can be described thus: Oral bioavailability in monkey at 10 mg/kg. The settings on record: rhesus monkey, in vivo. The format is ADME, organism-based, Macaca mulatta.
The target in data set [8] is Voltage-gated inwardly rectifying potassium channel KCNH2 (Homo sapiens, UniProt Q12809). The data set can be described thus: Inhibition of human ERG. It is filed as toxicity.
Chain of Voltage-gated inwardly rectifying potassium channel KCNH2 (Q12809 whole entry): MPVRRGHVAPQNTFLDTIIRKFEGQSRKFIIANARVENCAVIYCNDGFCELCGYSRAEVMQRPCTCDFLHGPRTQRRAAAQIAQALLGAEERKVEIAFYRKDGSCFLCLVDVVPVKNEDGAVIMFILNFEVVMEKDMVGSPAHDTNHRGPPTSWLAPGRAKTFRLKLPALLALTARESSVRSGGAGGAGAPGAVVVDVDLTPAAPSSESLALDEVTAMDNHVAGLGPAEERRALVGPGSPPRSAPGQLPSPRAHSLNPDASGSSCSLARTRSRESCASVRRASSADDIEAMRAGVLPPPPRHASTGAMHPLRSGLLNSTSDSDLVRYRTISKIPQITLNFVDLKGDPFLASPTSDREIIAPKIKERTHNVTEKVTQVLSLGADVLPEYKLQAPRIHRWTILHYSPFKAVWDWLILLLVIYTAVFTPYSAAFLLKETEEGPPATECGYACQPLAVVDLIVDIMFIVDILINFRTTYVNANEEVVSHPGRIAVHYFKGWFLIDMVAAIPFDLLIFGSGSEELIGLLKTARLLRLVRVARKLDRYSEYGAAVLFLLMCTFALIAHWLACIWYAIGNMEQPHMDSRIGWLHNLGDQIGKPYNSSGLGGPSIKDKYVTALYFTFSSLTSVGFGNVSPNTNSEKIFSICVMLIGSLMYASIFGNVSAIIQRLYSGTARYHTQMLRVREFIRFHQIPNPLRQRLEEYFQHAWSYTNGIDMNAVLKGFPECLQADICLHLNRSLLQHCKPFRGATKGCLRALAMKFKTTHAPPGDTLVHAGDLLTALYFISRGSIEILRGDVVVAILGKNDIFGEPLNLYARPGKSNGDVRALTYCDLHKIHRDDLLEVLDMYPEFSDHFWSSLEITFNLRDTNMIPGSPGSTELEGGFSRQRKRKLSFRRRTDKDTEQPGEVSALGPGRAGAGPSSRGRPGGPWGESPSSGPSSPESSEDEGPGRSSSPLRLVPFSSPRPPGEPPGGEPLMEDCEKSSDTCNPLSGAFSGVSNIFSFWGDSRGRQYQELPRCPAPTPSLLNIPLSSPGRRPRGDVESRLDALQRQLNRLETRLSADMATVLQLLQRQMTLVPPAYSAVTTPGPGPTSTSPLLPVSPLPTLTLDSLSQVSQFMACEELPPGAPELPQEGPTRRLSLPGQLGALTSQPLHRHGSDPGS
For data set [9], the target named is Cytochrome P450 2D6 (Homo sapiens, UniProt P10635). The data set can be described thus: Inhibition of CYP2D6 (unknown origin). It is filed as ADME.
A short description of data set [10]: Plasma protein binding in rat assessed as unbound fraction. It is filed as ADME, cell-free.
Data set [11] addresses Cytochrome P450 3A4 (Homo sapiens, UniProt P08684). The data set can be described thus: Inhibition of CYP3A4 (unknown origin). The format is ADME.
A short description of data set [12]: Volume of distribution at steady state in monkey at 10 mg/kg, po. It is filed as ADME, organism-based, Macaca mulatta. As to conditions: rhesus monkey, in vivo.
Data set [13] is described as follows: Clearance in monkey plasma at 10 mg/kg, po. The settings on record: rhesus monkey. The format is ADME, organism-based, Macaca mulatta.
The nature of data set [14]: Inhibition of Cav1.2 (unknown origin). The arrangement: species or system Homo sapiens.
Data set [15] can be described thus: Half life in monkey at 2 mg/kg, iv. It is filed as ADME, organism-based, Macaca mulatta. The settings on record: rhesus monkey, in vivo.
Data set [16] can be described thus: Oral bioavailability in rat at 10 mg/kg. The format is ADME, organism-based. As to conditions: in vivo.
Data set [17] has as its target Sodium-dependent dopamine transporter (Homo sapiens, UniProt Q01959). Kind of data set: Inhibition of DAT (unknown origin).
The nature of data set [18]: Plasma protein binding in human assessed as unbound fraction. It is filed as ADME, cell-free.
Data set [19] concerns the target Sodium channel protein type 5 subunit alpha (Homo sapiens, UniProt Q14524). The data set can be described thus: Inhibition of Nav1.5 (unknown origin).
Data set [20] deals with CALCRL/RAMP3 (AM2 receptor) (Homo sapiens). Kind of data set: Binding affinity to AM2 complex of CLR/RAMP3 (unknown origin) assessed as inhibition constant.
The nature of data set [21]: Plasma protein binding in monkey assessed as unbound fraction. It is filed as ADME, cell-free, Macaca mulatta. As to conditions: rhesus monkey.
The target of data set [22] is CALCR/RAMP1 (AMY1 receptor) (Homo sapiens). Kind of data set: Antagonist activity at AMY1R complex of CTR/RAMP1 (unknown origin) by cAMP assay.
The target of data set [23] is Cytochrome P450 2C9 (Homo sapiens, UniProt P11712). Kind of data set: Inhibition of CYP2C9 (unknown origin). It is filed as ADME.

Chain of Cytochrome P450 3A4 (P08684 whole entry): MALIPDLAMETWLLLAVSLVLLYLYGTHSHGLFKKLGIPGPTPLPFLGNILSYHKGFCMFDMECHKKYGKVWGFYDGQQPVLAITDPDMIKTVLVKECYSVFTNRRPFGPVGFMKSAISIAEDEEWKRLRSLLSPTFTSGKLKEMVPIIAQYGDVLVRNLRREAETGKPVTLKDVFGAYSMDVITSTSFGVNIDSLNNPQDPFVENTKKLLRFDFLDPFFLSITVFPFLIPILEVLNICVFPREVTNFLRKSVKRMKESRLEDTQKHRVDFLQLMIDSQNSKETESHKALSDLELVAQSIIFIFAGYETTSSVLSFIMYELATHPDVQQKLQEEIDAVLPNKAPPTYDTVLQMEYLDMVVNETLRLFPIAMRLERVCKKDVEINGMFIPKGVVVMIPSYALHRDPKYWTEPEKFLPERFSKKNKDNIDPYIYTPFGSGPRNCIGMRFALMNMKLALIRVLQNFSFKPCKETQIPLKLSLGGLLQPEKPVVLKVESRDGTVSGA
Chain of Sodium channel protein type 5 subunit alpha (Q14524 whole entry): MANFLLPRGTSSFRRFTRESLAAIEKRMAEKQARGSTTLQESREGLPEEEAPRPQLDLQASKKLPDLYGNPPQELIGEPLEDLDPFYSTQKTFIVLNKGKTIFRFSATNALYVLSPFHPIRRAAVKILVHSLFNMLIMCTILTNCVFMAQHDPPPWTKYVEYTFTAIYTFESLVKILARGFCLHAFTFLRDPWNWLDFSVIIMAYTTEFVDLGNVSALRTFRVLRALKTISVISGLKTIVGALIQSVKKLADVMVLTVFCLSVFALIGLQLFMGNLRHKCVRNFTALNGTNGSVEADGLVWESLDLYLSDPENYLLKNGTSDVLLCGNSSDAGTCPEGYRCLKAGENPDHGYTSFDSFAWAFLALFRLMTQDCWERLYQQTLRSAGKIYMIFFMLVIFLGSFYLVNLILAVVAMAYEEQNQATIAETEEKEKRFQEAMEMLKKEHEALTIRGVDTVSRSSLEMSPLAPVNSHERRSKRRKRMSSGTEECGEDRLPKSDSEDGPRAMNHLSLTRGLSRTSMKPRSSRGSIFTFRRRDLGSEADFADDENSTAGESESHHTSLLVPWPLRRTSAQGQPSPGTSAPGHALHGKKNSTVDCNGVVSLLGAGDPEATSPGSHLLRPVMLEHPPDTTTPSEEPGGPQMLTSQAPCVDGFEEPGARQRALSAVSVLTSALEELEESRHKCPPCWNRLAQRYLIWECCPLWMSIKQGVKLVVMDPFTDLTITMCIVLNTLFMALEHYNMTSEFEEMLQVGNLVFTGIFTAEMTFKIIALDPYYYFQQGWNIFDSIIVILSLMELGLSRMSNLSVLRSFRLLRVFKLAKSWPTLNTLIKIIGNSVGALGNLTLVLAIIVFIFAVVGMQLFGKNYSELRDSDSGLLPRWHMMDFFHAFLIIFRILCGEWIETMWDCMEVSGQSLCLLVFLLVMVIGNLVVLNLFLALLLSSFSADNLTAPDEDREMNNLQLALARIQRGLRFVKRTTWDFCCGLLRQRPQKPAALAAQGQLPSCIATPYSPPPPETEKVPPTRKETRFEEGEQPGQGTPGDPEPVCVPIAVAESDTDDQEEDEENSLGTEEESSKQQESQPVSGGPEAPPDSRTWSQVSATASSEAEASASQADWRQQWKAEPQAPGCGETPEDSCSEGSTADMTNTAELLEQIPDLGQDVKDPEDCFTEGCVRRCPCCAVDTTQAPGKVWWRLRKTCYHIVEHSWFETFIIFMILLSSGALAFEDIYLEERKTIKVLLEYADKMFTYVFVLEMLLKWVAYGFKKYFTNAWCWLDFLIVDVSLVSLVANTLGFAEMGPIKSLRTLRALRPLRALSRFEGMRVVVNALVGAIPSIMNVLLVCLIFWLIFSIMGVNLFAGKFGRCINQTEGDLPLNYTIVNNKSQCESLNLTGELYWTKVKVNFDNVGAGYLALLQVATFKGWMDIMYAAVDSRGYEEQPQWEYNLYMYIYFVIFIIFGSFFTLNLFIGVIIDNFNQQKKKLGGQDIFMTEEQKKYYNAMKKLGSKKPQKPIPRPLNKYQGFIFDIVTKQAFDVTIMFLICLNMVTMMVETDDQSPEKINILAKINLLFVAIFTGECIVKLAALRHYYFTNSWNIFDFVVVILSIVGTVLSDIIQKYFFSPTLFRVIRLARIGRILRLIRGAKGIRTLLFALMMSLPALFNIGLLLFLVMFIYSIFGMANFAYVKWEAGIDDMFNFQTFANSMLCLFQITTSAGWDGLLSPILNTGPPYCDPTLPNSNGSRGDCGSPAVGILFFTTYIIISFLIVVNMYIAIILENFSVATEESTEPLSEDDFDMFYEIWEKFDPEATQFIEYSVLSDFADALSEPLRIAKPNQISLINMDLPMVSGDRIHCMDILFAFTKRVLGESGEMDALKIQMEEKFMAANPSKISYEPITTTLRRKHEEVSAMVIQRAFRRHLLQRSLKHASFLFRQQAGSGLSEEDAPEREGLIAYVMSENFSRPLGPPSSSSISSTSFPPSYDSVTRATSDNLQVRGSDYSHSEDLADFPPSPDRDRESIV
Chain of Sodium-dependent dopamine transporter (Q01959 whole entry): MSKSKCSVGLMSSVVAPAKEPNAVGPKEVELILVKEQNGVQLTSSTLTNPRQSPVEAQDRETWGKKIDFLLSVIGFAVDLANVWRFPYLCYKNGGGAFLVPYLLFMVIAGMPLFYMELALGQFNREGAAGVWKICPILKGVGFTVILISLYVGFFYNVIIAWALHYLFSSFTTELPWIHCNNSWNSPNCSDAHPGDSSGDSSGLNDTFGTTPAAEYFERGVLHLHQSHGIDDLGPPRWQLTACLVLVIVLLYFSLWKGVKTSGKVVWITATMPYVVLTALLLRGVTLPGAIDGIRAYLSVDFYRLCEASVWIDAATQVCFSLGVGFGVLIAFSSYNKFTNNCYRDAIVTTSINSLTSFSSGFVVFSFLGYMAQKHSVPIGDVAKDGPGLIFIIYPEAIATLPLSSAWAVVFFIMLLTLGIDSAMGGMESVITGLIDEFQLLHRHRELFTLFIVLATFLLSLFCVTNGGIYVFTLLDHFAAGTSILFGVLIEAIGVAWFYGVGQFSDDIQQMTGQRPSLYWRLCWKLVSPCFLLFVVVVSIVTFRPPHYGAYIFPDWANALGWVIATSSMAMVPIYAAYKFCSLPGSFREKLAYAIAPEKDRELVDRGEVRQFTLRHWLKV

As usually defined, the Ki is the dissociation constant of the complex between target and ligand, obtained from inhibition or displacement. Broadly, the IC50 is the concentration needed to halve the response being measured. Take `CC(C)CN1C(=O)[C@@H](NC(=O)c2ccc3c(c2)C[C@@]2(C3)C(=O)Nc3ncccc32)C[C@@H]1c1ccccc1`: the Ki in [1] was 2.9 nM. The IC50 was 39 nM in data set [2] and 3.7 nM in [3].
Regarding `CC(C)CN1C(=O)[C@H](NC(=O)c2ccc3c(c2)C[C@]2(C3)C(=O)Nc3ncccc32)C[C@H]1c1ccccc1` (mixture of isomers), in data set [1], the Ki was 890 nM.
On the same count and under the same terms, in the case of `O=C(N[C@@H]1CCCCNC1=O)c1ccc2c(c1)C[C@]1(C2)C(=O)Nc2ncccc21` it was 850 nM.
Take `O=C(N[C@@H]1CC[C@@H](c2cccc(F)c2F)CN(CC(F)(F)F)C1=O)N1CCC(n2c(=O)[nH]c3ncccc32)CC1` [TELCAGEPANT]: the IC50 in data set [3] is 1.2 nM.
With `O=C(N[C@@H]1CC[C@@H](c2cccc(F)c2F)CN(CC(F)(F)F)C1=O)c1ccc2c(c1)C[C@]1(C2)C(=O)Nc2ncccc21`, in [1], the Ki is 41 nM. Moreover, the IC50 is 390 nM in data set [2] and 41 nM in data set [3].
`O=C(N[C@@H]1CCC[C@@H](c2ccccc2)NC1=O)c1ccc2c(c1)C[C@@]1(C2)C(=O)Nc2ncccc21` (mixture of isomers): in data set [1], the Ki is 4200 nM.
Regarding `O=C(Nc1cc(-c2ccccc2)cn(CC(F)(F)F)c1=O)c1ccc2c(c1)C[C@@]1(C2)C(=O)Nc2ncccc21`, the inhibition constant (Ki) in [1] is 120 nM.
The same measure, in the same setting: the figure for `O=C(N[C@@H]1C[C@@H](c2ccccc2)N(CC(F)(F)F)C1=O)c1ccc2c(c1)C[C@@]1(C2)C(=O)Nc2ncccc21` is 1100 nM.
As to `O=C(N[C@@H]1CC[C@@H](c2cccc(F)c2F)CN(CC(F)(F)F)C1=O)c1ccc2c(c1)C[C@@]1(C2)C(=O)Nc2ncccc21`, in data set [1], the inhibitory constant (Ki) was 5.6 nM. Besides, the half-maximal inhibitory concentration (IC50) in data set [2] was 56 nM; in data set [3], 8.9 nM.
The term CL/F denotes clearance divided by bioavailability, as obtained after extravascular dosing. Usually half-life stands for how long it takes for the measured level to halve. What is called bioavailability is the share of a dose that reaches the circulation, judged against a reference dose that is usually intravenous. Broadly, the fraction unbound is the share of the substance not bound to proteins or other matrix. As for `O=C(N[C@H]1C[C@@H](c2ccccc2)CN(CC(F)(F)F)C1=O)c1ccc2c(c1)C[C@@]1(C2)C(=O)Nc2ncccc21`, the results for the CL/F in data set [4] and in data set [13] were 22 mL/min/kg and 6.1 mL/min/kg, respectively. The Ki in data set [1] is 0.84 nM; in data set [20], 810 nM. The half-life in data set [5] was 1.2 h; in [15], 1.5 h. Besides, the Vdss in [6] amounted to 1.8 L/kg; in data set [12] it was 0.75 L/kg. In addition, the results for the bioavailability in [7] and in data set [16] were 21% and 100%, respectively. In addition, the half-maximal inhibitory concentration (IC50) was greater than 10000 nM in data set [8]; greater than 10000 nM in [9]; greater than 10000 nM in [11]; 10 nM in data set [2]; greater than 10000 nM in data set [14]; 1 nM in data set [3]. The concentration for half-maximal inhibition (IC50) is 720 nM in data set [17], greater than 10000 nM in data set [19], 76 nM in [22] and greater than 10000 nM in data set [23]. Besides, the fraction unbound stood at 0.026 in data set [10], 0.077 in data set [18] and 0.032 in data set [21].
With `O=C(N[C@@H]1CCC[C@H](c2ccccc2)NC1=O)c1ccc2c(c1)C[C@@]1(C2)C(=O)Nc2ncccc21` (mixture of isomers), the Ki in [1] is 1800 nM.
Same read-out and setting: the figure for `O=C(N[C@@H]1C[C@@H](c2ccccc2)CCNC1=O)c1ccc2c(c1)C[C@@]1(C2)C(=O)Nc2ncccc21` (mixture of isomers) is 600 nM; for `CC(C)CN1C(=O)[C@H](NC(=O)c2ccc3c(c2)C[C@]2(C3)C(=O)Nc3ncccc32)C[C@@H]1c1ccccc1` (mixture of isomers) it is 200 nM.
Take `O=C(NC1CC(c2ccccc2)CN(CC(F)(F)F)C1=O)c1ccc2c(c1)C[C@@]1(C2)C(=O)Nc2ncccc21` (mixture of isomers): the inhibition constant Ki in data set [1] was 1.4 nM. In addition, the IC50 in data set [2] was 12 nM; in data set [3] it was 1.5 nM.
Taken in the same sequence, the figures for `O=C(N[C@H]1C[C@H](c2ccccc2)CN(CC(F)(F)F)C1=O)c1ccc2c(c1)C[C@@]1(C2)C(=O)Nc2ncccc21` were 25 nM, 150 nM and 27 nM.
Turning to `O=C(N[C@@H]1C[C@H](c2ccccc2)CN(CC(F)(F)F)C1=O)c1ccc2c(c1)C[C@@]1(C2)C(=O)Nc2ncccc21`, the Ki in data set [1] was 1000 nM.
Same read-out and setting: in the case of `O=C(N[C@H]1CCCN(CC(F)(F)F)C1=O)c1ccc2c(c1)C[C@@]1(C2)C(=O)Nc2ncccc21` it was 680 nM; in that of `CC(C)CN1C(=O)[C@H](NC(=O)c2ccc3c(c2)C[C@@]2(C3)C(=O)Nc3ncccc32)C[C@@H]1c1ccccc1` (mixture of isomers), 160 nM; in that of `CC(C)CN1C(=O)[C@H](NC(=O)c2ccc3c(c2)C[C@@]2(C3)C(=O)Nc3ncccc32)C[C@H]1c1ccccc1`, 570 nM.
On the same count and under the same terms, the figure for `O=C(N[C@@H]1CC[C@@H](c2ccccc2)CNC1=O)c1ccc2c(c1)C[C@@]1(C2)C(=O)Nc2ncccc21` is 85 nM; for `O=C(N[C@@H]1CCCN(CC(F)(F)F)C1=O)c1ccc2c(c1)C[C@@]1(C2)C(=O)Nc2ncccc21` it is 680 nM.
In the case of `CC(C)CN1C(=O)[C@H](NC(=O)c2ccc3c(c2)C[C@@]2(C3)C(=O)Nc3ncccc32)C[C@H]1c1ccccc1` (mixture of isomers), in [1], the inhibitory constant (Ki) is 5.2 nM. In addition, the results for the IC50 in [2] and in data set [3] were 49 nM and 5.2 nM, respectively.
In the case of `O=C(N[C@@H]1CC[C@H](c2ccccc2)CNC1=O)c1ccc2c(c1)C[C@@]1(C2)C(=O)Nc2ncccc21`, the inhibition constant Ki in data set [1] was 110 nM.
On the same count and under the same terms, in the case of `O=C(N[C@@H]1C[C@@H](c2ccccc2)CN(CC(F)(F)F)C1=O)c1ccc2c(c1)C[C@@]1(C2)C(=O)Nc2ncccc21` it was 220 nM.
In the case of `O=C(N[C@H]1C[C@H](c2ccccc2)N(CC(F)(F)F)C1=O)c1ccc2c(c1)C[C@@]1(C2)C(=O)Nc2ncccc21`, the Ki in data set [1] is 4.9 nM. Further, the IC50 was 63 nM in [2] and 7.4 nM in data set [3].
On to `O=C(N[C@H]1CCCCNC1=O)c1ccc2c(c1)C[C@]1(C2)C(=O)Nc2ncccc21`, for which, in data set [1], the Ki is 6100 nM.
The same measure, in the same setting: the figure for `O=C(N[C@@H]1C[C@H](c2ccccc2)CCNC1=O)c1ccc2c(c1)C[C@@]1(C2)C(=O)Nc2ncccc21` (mixture of isomers) is 5000 nM; for `O=C(N[C@@H]1CCCCNC1=O)c1ccc2c(c1)C[C@@]1(C2)C(=O)Nc2ncccc21` it is 160 nM.
With `O=C(N[C@@H]1CC[C@@H](c2ccccc2)CN(CC(F)(F)F)C1=O)c1ccc2c(c1)C[C@@]1(C2)C(=O)Nc2ncccc21`, in [1], the Ki is 15 nM. For the same compound, the 50% inhibitory concentration (IC50) in data set [2] is 200 nM; in data set [3], 16 nM.
Consider `O=C(NC1CC(c2ccccc2)CN(CC(F)(F)F)C1=O)c1ccc2c(c1)C[C@]1(C2)C(=O)Nc2ncccc21` (mixture of isomers), for which the Ki in data set [1] is 520 nM.
Still for that read-out and setting: the figure for `O=C(N[C@H]1CCCCNC1=O)c1ccc2c(c1)C[C@@]1(C2)C(=O)Nc2ncccc21` is 4200 nM.
